Laboratory results from PMC9959676 (Molecules, 2023).
Like-named read-outs stand apart in the source and are kept apart here.

Columns and labels:
[1] = tested on: thoracic aorta segments; assay: Inhibition of phenylephrine-induced contraction on isolated aorta rings; set-up: species or system male Wistar rats; settings: compounds 10^−4 M in organ bath, phenylephrine 10^−6 M, n = 5
Method: (§1) Cervical disruption was used to eliminate male Wistar rats weighing 200 g and 300 g. The thoracic aorta segments (3 mm to 5 mm) were slightly pressed and […]. The tissues were placed in an organ bath filled with 10 mL of Krebs-Henseleit solution and kept at 37 °C. Then 95% oxygen and 5% carbon dioxide were passed through the above-mentioned solution. To record organ responses to phenylephrine, (10^−6 M) (Sigma, St. Louis, MO, USA) simulated contractions; isometric transducers and Gemini recorders (Ugo Basile, Varese, Italy) were assembled. Aortic rings were recon traced with phenylephrine (10^−6 M) and subjected to acetylcholine (10^−6 M) for recording endothelium-dependent relaxations (EDR). All synthesized compounds along with the standard (valsartan) were mixed in DMSO; whereas synthesized derivatives of concentration 10^−4 M were added in an organ bath. In conscious rats, systolic blood pressure was recorded by applying the tail-cuff method. Wistar rats of 200 g to 250 g weight were selected and divided into groups of five individuals. The chemicals were injected intraperitoneally at a dosage of 80 mg/kg body weight. The tail-cuff and a piezoelectric pulse sensor were coupled to a blood pressure analyzer and were positioned at the base of the tail (May 9610, Ankara, Turkey).
(§2) All results were presented as the mean of SEM. (n = 5) and test compounds were employed for statistical significance determination.

[2] = tested on: Pseudomonas aeruginosa; assay: Antibacterial agar-well diffusion; format: cell-based; settings: sample 100 mg/5 mL in DMSO; ceftriaxone sodium 20 mg/10 mL; 37 °C, 24 h; 6 mm wells
Method: (§3) After sterilizing the Mueller Hinton agar medium on plates in an autoclave and allowing it to cool to roughly 45 °C, a 100 µL standard inoculum was aseptically mixed, chilled till 37 °C, and 6 mm wells were formed in the inoculated plates. The volume of 100 μL (100 mg/5 mL in DMSO), ceftriaxone sodium (20 mg/10 mL in DMSO) as a positive control, and pure DMSO as a negative control; 30 μL of the sample solution was incorporated into these wells. These primed plates were incubated at 37 °C for 24 h prior to record inhibitory zones in millimeters.

[3] = tested on: Staphylococcus aureus; assay: Antibacterial agar-well diffusion; format: cell-based; settings: sample 100 mg/5 mL in DMSO; ceftriaxone sodium 20 mg/10 mL; 37 °C, 24 h; 6 mm wells
Method: as §3

[4] = tested on: Escherichia coli; assay: Antibacterial agar-well diffusion; format: cell-based; settings: sample 100 mg/5 mL in DMSO; ceftriaxone sodium 20 mg/10 mL; 37 °C, 24 h; 6 mm wells
Method: as §3

[5] = tested on: Bacillus pumilus; assay: Antibacterial agar-well diffusion; format: cell-based; settings: sample 100 mg/5 mL in DMSO; ceftriaxone sodium 20 mg/10 mL; 37 °C, 24 h; 6 mm wells
Method: as §3

[6] = DPPH free radical scavenging assay; settings: 1.0 mL sample 0.5 mg/mL + 2 mL DPPH 0.2 mg/mL, 30 min, 517 nm
Method: The DPPH assay was carried out to estimate the antioxidant potential among all the compounds [29]. Then, 2 mL (0.2 mg/mL in methyl alcohol) of DPPH was mixed with 1.0 mL (0.5 mg/mL in methyl alcohol) of the sample solution in a test tube. All the reaction tubes were covered with aluminum foil and kept aside for 30 min to complete the reaction. The activity was carried out in a dark room. […] A UV-visible spectrophotometer was employed to observe a reduction in the concentration of free radicals at 517 nm. The absorbance of the control (1.0 mL methanol + 2 mL DPPH solution) was also measured. All samples were evaluated in a triplicate manner, and the mean results were recorded. The standard antioxidant (ascorbic acid) was evaluated and set as a reference/standard. The percentage of inhibition (%) was calculated using the following formula in terms of scavenging activity(S):S (%) = [(Ab − Aa)/Ab] × 100(1) where Ab = Absorbance of control; and Aa = Absorbance of the test sample

[7] = tested on: conscious rats; assay: Antihypertensive effect, systolic blood pressure by tail-cuff method in conscious rats; format: in vivo, Wistar rats; settings: 80 mg/kg intraperitoneally, n = 5, Control 108.28 ± 6.87, DMSO 81.10 ± 3.21
Method: as §1, §2

[8] = molecular target: urease (Canavalia ensiformis, UniProt P07374); assay: biochemical; format: biochemical
Method: The activity performed was an improved procedure of the Berthelot assay. […] For 5 min, the mixture was incubated at 37 °C. Each well in a 96-well plate received 40 µL of urea stock solution (20 mM); incubated for 10 min at 37 °C. Afterwards, 115 µL phenol hypochlorite (45 µL phenol + 70 µL alkali) per well was added. Furthermore, all the contents were incubated for 10 min at 37 °C. Absorbance at 625 nm was measured. Using the provided formula, the % of enzyme-inhibition and IC-50 values were computed Inhibition (%age) = [Control − test/100(control)] where Control = [Total enzyme activity minus inhibitor]. The test is the test compounds’ activity

Chain of urease (P07374 whole entry, looked up): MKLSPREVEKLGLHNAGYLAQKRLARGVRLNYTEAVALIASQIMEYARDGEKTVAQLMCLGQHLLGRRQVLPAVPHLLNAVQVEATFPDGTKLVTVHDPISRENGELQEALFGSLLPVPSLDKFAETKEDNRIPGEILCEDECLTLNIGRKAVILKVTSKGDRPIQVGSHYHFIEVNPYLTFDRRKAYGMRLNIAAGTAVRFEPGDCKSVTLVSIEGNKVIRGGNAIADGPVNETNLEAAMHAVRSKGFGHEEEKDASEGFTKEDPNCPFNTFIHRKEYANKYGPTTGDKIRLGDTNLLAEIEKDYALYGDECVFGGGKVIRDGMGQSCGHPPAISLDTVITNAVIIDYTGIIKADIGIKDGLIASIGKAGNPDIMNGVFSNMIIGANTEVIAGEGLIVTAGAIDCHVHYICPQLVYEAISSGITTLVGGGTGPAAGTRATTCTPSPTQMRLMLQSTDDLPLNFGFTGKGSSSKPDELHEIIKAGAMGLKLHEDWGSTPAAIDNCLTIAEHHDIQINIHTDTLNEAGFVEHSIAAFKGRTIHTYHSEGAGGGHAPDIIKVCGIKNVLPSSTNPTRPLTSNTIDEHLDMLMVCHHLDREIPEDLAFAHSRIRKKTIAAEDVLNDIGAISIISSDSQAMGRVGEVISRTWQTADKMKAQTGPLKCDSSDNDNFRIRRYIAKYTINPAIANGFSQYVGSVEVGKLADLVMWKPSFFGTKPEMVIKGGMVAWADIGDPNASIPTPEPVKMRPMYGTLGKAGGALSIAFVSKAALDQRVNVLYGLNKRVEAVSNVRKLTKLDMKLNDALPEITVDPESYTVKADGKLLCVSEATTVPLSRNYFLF

Compound | %ge inh. of Phenylephrine Cont. (±SEM) [1] [%] | Zone of Inhibition Gram -Ve Bacteria P. aeruginosa Mean ± SEM [2] [millimeters] | Zone of Inhibition Gram +ve Bacteria S. aureus Mean ± SEM [3] [millimeters] | Zone of Inhibition Gram -Ve Bacteria E. coli Mean ± SEM [4] [millimeters] | Zone of Inhibition Gram +ve Bacteria B.pumilus Mean ± SEM [5] [millimeters] | %Age Inhibition ± SEM [6] [%] | Mean of Systolic Blood Pressure ± SEM [7] | IC50 ([8]; urease, pH 7.0, 37 °C, read-out: IC50 ± SEM) [nM] | inhibition at 100 µM ([1]; Rattus norvegicus, read-out: %ge inh. of Phenylephrine Cont. (±SEM)) [%] | IC50 [8] [nM]
CCCCC(=O)N(Cc1ccc(-c2ccccc2-c2nn[nH]n2)cc1)C(C(=O)Oc1ccc2ccccc2c1)C(C)C (stereo not shown) [AV10, naphthalen-2-yl 2-(N-((2′-(2H-tetrazol-5-yl)-[1,1′-biphenyl]-4 yl)methyl)pentanamido)-3methyl butanoate] | 69.8 ± 6.7 | 12.63 ± 0.63 | 12.13 ± 0.37 | 10.40 ± 0.56 | 10.30 ± 0.21 | 94.4 ± 0.52 | 75.82 ± 4.12 | 2050 ± 1050 |  | 
CCCCC(=O)N(Cc1ccc(-c2ccccc2-c2nn[nH]n2)cc1)C(C(=O)Oc1ccccc1C(=O)O)C(C)C (stereo not shown) [AV11, 2-((2-(N-((2′-(2H-tetrazole-5-yl)-[1,1′-biphenyl]-4yl)methyl)pentanamido)-3-methylbutanoyl)oxy) benzoic acid] |  | 11.46 ± 0.53 | 12.53 ± 0.68 | 10.01 ± 0.55 | 10.66 ± 0.52 | 95.6 ± 0.54 | 72.71 ± 3.21 |  | 70.8 ± 7.7 | 2190 ± 170
